# Results as given in patent US20250230193A1, “CYCLIC COMPOUND HAVING SELECTIVE KRAS INHIBITORY EFFECT ON HRAS AND NRAS” (CHUGAI SEIYAKU KABUSHIKI KAISHA, priority 2022, published 2025).
# *1 amine or outer side, *2 acyl side, *3 side chain or, on linkers, in order; H or OH if unused. Where a SMILES comes first, the peptide text is derived from it. Bridges are numbered along the chain shown (N, C = ends). [ ]: non-standard residue; d: D form. The star is where a group is joined. hPhe(3-Cl-4-CF3) = N[C@@H](CCc1ccc(C(F)(F)F)c(Cl)c1)C(=O)O; NPrPhe(4-CF3) = CCCN[C@@H](Cc1ccc(C(F)(F)F)cc1)C(=O)O; NEtAsp = CCN([C@@H](CC(=O)[*:3])C(=O)[*:2])[*:1]; NMeGly(cPent) = CN[C@H](C(=O)O)C1CCCC1; NMeD = CN[C@@H](CC(=O)O)C(=O)O; NMeL = CN[C@@H](CC(C)C)C(=O)O; Morpholide = C1CN(*)CCO1; Ac5c = NC1(C(=O)O)CCCC1; Aze = O=C(O)[C@@H]1CCN1; Ac4c = NC1(C(=O)O)CCC1; Sar = CNCC(=O)O
# Key:
# [1] = biological target: GDP-bound HRAS wild-type protein (Homo sapiens, UniProt P01112); experiment: Binding to HRAS by surface plasmon resonance (SPR), Single Cycle Kinetics
# [2] = biological target: GDP-bound NRAS wild-type protein (Homo sapiens, UniProt P01111); experiment: Binding to NRAS by surface plasmon resonance (SPR), Single Cycle Kinetics
# [3] = KD ratio HRAS/KRAS, class symbols
# [4] = KD ratio NRAS/KRAS, class symbols
# GDP-bound NRAS wild-type protein, sequence (P01111 whole entry): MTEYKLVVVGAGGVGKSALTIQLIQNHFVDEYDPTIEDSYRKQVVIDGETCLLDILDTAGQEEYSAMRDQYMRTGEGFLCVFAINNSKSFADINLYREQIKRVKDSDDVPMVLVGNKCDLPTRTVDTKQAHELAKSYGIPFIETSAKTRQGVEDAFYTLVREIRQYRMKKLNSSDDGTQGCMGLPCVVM
# GDP-bound HRAS wild-type protein, sequence (P01112 whole entry): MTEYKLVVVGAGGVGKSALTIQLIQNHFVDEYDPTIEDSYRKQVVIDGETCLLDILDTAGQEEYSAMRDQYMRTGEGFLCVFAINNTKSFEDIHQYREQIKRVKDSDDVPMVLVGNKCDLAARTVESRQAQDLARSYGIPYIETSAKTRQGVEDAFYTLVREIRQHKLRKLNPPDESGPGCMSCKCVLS
compound,measurement,setting,value
CCC[C@H]1C(=O)N[C@@H]([C@@H](C)CC)C(=O)N(C)CC(=O)N(C)[C@H]2C/C=C\CCN(C2=O)[C@@H](Cc2ccc(C(F)F)cc2)C(=O)N(C)CC(=O)N[C@@H](CCc2ccc(Cl)c(Cl)c2)C(=O)N2C[C@H](OC3CCC3)C[C@H]2C(=O)NC2(CC(C)(C)C2)C(=O)N(C)[C@@H](C(CC)CC)C(=O)N(C)[C@H](C(=O)N(C)C)CC(=O)N1C [PP2643],HRAS/KRAS (ratio of KD value with respect to GDP-bound HRAS wild-type protein to KD value with respect to KRAS),[1]; [3],A (a compound having 10 or more and less than 20 is denoted as A)
same,NRAS/KRAS (ratio of KD value with respect to GDP-bound NRAS wild-type protein to KD value with respect to KRAS),[2]; [4],AA (a compound having 20 or more is denoted as AA)
CCCN1C(=O)CN(C)C(=O)CN(C)C(=O)[C@H]([C@@H](C)CC)NC(=O)[C@H](CC(C)C)N(C)C(=O)C[C@@H](C(=O)N2CCOCC2)N(CC)C(=O)[C@H](C2CCCC2)N(C)C(=O)C2(CCC2)NC(=O)[C@@H]2CCCN2C(=O)[C@H](CCc2ccc(C(F)(F)F)c(Cl)c2)NC(=O)CN(C)C(=O)[C@@H]1Cc1ccc(C(F)(F)F)cc1 [PP1953] ([NMeL]I[Sar][Sar][NPrPhe(4-CF3)][Sar][hPhe(3-Cl-4-CF3)]P[Ac4c][NMeGly(cPent)][NEtAsp]-Morpholide; lactam N-11),HRAS/KRAS (ratio of KD value for HRAS to KD value for KRAS),"[1]; KD ratio, GDP-bound HRAS wild-type vs GDP-bound KRAS wild-type, SPR",B (a compound having 3 or more and less than 10 is denoted as B)
same,NRAS/KRAS (ratio of KD value for NRAS to KD value for KRAS),"[2]; KD ratio, GDP-bound NRAS wild-type vs GDP-bound KRAS wild-type, SPR",B (a compound having 3 or more and less than 10 is denoted as B)
CCCN1C(=O)CN(C)C(=O)[C@@H]2CCN2C(=O)[C@H]([C@@H](C)CC)NC(=O)[C@H](CC(C)C)N(C)C(=O)C[C@@H](C(=O)N2CCOCC2)N(C)C(=O)[C@H](C2CCCC2)N(C)C(=O)C2(CCCC2)NC(=O)[C@@H]2CCN2C(=O)[C@H](CCc2ccc(C(F)(F)F)c(Cl)c2)NC(=O)CN(C)C(=O)[C@@H]1Cc1ccc(C(F)(F)F)cc1 [PP0307] ([NMeL]I[Aze][Sar][NPrPhe(4-CF3)][Sar][hPhe(3-Cl-4-CF3)][Aze][Ac5c][NMeGly(cPent)][NMeD]-Morpholide; lactam N-11),HRAS/KRAS (ratio of KD for GDP-bound HRAS wild-type to KD for KRAS),"[1]; KD ratio HRAS/KRAS, SPR",B (a compound having 3 or more and less than 10 is denoted as B)
same,NRAS/KRAS (ratio of KD for GDP-bound NRAS wild-type to KD for KRAS),"[2]; KD ratio NRAS/KRAS, SPR",B (a compound having 3 or more and less than 10 is denoted as B)
CC[C@H](C)[C@@H]1NC(=O)[C@H](COC)N(C)C(=O)C[C@@H](C(=O)N(C)C)N(C)C(=O)[C@H](C2CCCC2)N(C)C(=O)C2(CC(C)(C)C2)NC(=O)[C@@H]2CCCCN2C(=O)[C@H](CCc2cc(F)c(C(F)(F)F)c(F)c2)NC(=O)CN(C)C(=O)[C@H](Cc2ccc(C(F)(F)F)cc2)N2CC/C=C\C[C@@H](C2=O)N(C)C(=O)CN(C)C1=O [PP2907],HRAS/KRAS (ratio of KD value with respect to GDP-bound HRAS wild-type protein to KD value with respect to KRAS),[1]; [3],A (a compound having 10 or more and less than 20 is denoted as A)
same,NRAS/KRAS (ratio of KD value with respect to GDP-bound NRAS wild-type protein to KD value with respect to KRAS),[2]; [4],AA (a compound having 20 or more is denoted as AA)
C#CCN1CC(=O)N(C)[C@H]2C/C=C\CCN(C2=O)[C@@H](Cc2ccc(C(F)(F)F)cc2)C(=O)N(C)CC(=O)N[C@@H](CCc2ccc(C(F)(F)F)c(OC)c2)C(=O)N2C[C@H](OCC)C[C@H]2C(=O)NC2(CC(C)(C)C2)C(=O)N(C)[C@@H](C2CCCC2)C(=O)N(C)[C@H](C(=O)N(C)C)CC(=O)N(C)[C@@H](CCC)C(=O)N[C@@H]([C@@H](C)CC)C1=O [PP2107],HRAS/KRAS (ratio of KD value with respect to HRAS to KD value with respect to KRAS),"[1]; SPR, GDP-bound HRAS wild-type vs GDP-bound KRAS wild-type",A (a compound having 10 or more and less than 20 is denoted as A)
same,NRAS/KRAS (ratio of KD value with respect to NRAS to KD value with respect to KRAS),"[2]; SPR, GDP-bound NRAS wild-type vs GDP-bound KRAS wild-type",A (a compound having 10 or more and less than 20 is denoted as A)
C#CC[C@H]1C(=O)N[C@@H]([C@@H](C)CC)C(=O)N(C)CC(=O)N(C)[C@H]2CCCCCN(C2=O)[C@@H](Cc2ccc(C(F)(F)F)cc2)C(=O)N(C)CC(=O)N[C@@H](CCc2cc(F)c(C(F)(F)F)c(F)c2)C(=O)N2C[C@H](OCC)C[C@H]2C(=O)NC2(CCC2)C(=O)N(C)[C@@H](C2CCCC2)C(=O)N(C)[C@H](C(=O)N2CCOCC2)CC(=O)N1C [PP0681],HRAS/KRAS (ratio of KD value with respect to GDP-bound HRAS wild-type protein to KD value with respect to KRAS),"[1]; KD ratio HRAS/KRAS, SPR",B (a compound having 3 or more and less than 10 is denoted as B)
same,NRAS/KRAS (ratio of KD value with respect to GDP-bound NRAS wild-type protein to KD value with respect to KRAS),"[2]; KD ratio NRAS/KRAS, SPR",B (a compound having 3 or more and less than 10 is denoted as B)
CCO[C@@H]1C[C@H]2C(=O)NC3(CC=CC3)C(=O)N(C)[C@@H](C3CCCC3)C(=O)N(C)[C@H](C(=O)N(C)C)CC(=O)N(C)[C@@H](C)C(=O)N[C@@H]([C@@H](C)CC)C(=O)N(C)CC(=O)N(C)[C@H]3CCCCCN(C3=O)[C@@H](Cc3ccc(C(F)(F)F)cc3)C(=O)N(C)CC(=O)N[C@@H](CCc3cc(F)c(C(F)(F)F)c(F)c3)C(=O)N2C1 [PP0724],HRAS/KRAS (ratio of KD value with respect to GDP-bound HRAS wild-type protein to KD value with respect to KRAS),"[1]; KD ratio HRAS/KRAS, SPR",B (a compound having 3 or more and less than 10 is denoted as B)
same,NRAS/KRAS (ratio of KD value with respect to GDP-bound NRAS wild-type protein to KD value with respect to KRAS),"[2]; KD ratio NRAS/KRAS, SPR",B (a compound having 3 or more and less than 10 is denoted as B)
CCC[C@H]1C(=O)N[C@@H]([C@@H](C)CC)C(=O)N(C)CC(=O)N(C)[C@H]2C/C=C\CCN(C2=O)[C@@H](Cc2ccc(C(F)(F)F)cc2)C(=O)N(C)CC(=O)N[C@@H](CCc2ccc3sc(C)c(C)c3c2)C(=O)N2C[C@H](OCC)C[C@H]2C(=O)NC2(CC(C)(C)C2)C(=O)N(C)[C@@H](C(CC)CC)C(=O)N(C)[C@H](C(=O)N(C)C)CC(=O)N1C [PP2900],HRAS/KRAS (ratio of KD value with respect to GDP-bound HRAS wild-type protein to KD value with respect to KRAS),[1]; [3],A (a compound having 10 or more and less than 20 is denoted as A)
same,NRAS/KRAS (ratio of KD value with respect to GDP-bound NRAS wild-type protein to KD value with respect to KRAS),[2]; [4],AA (a compound having 20 or more is denoted as AA)
